From PMC8355706, “CK-3, A Novel Methsulfonyl Pyridine Derivative, Suppresses Hepatocellular Carcinoma Proliferation and Invasion by Blocking the PI3K/AKT/mTOR and MAPK/ERK Pathways” (Frontiers in Oncology, 2021)

Legend:
Type in all cases: biochemical
PI3Kδ = target: T1, PI3Kδ (Homo sapiens, UniProt O00329); assay: PI3K-Glo ADP detection kinase assay
T1 construct: gene PIK3CD; with Phosphatidylinositol 3-kinase regulatory subunit alpha
Source text: PI3K-Glo ADP detection kinase assay on PI3Kδ

PI3Kβ = target: T2, PI3Kβ (Homo sapiens, UniProt P42338); assay: PI3K-Glo ADP detection kinase assay
T2 construct: gene PIK3CB; with Phosphatidylinositol 3-kinase regulatory subunit alpha
Source text: PI3K-Glo ADP detection kinase assay on PI3Kβ

PI3Kα = target: T3, PI3Kα (Homo sapiens, UniProt P42336); assay: PI3K-Glo ADP detection kinase assay
T3 construct: gene PIK3CA; with Phosphatidylinositol 3-kinase regulatory subunit alpha
Source text: PI3K-Glo ADP detection kinase assay on PI3Kα

ERK = target: T4, ERK; assay: kinase activity profile; ERK assay not described
T4 construct: gene MAPK1; enzyme source and assay not described; ERK2 used only for docking
Source text: kinase activity profile; ERK assay not described on ERK

PI3Kγ = target: T5, PI3Kγ (Homo sapiens, UniProt P48736); assay: PI3K-Glo ADP detection kinase assay
T5 construct: gene PIK3CG
Source text: PI3K-Glo ADP detection kinase assay on PI3Kγ

T5 sequence (P48736 whole entry): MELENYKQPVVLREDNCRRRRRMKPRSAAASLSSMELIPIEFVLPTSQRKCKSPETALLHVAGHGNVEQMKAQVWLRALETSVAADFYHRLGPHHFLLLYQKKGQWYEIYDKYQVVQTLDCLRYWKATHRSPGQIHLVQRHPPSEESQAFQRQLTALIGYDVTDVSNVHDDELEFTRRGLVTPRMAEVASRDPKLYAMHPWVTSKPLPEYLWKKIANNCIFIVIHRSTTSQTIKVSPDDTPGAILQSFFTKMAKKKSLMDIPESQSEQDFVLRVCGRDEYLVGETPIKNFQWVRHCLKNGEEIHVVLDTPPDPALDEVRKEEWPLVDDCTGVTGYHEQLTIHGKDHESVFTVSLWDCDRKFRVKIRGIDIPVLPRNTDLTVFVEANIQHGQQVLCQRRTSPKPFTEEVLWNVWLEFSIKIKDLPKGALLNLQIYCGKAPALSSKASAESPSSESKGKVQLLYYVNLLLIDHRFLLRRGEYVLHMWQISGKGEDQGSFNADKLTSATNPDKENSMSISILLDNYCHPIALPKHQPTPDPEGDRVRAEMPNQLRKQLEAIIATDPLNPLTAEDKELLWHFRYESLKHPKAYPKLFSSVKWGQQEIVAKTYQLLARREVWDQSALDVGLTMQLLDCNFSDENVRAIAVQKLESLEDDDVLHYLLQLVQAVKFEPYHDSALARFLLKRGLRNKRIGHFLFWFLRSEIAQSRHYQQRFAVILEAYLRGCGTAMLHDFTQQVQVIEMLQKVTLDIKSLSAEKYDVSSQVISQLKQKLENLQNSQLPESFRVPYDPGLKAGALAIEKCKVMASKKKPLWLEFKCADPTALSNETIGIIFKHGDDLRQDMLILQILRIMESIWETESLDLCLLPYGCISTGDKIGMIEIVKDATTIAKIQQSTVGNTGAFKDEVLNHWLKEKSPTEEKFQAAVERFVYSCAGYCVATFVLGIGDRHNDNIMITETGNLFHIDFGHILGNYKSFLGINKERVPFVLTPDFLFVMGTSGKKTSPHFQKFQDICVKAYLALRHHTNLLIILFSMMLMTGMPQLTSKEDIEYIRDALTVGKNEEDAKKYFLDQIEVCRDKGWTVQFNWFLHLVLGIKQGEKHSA
T1 sequence (O00329 whole entry): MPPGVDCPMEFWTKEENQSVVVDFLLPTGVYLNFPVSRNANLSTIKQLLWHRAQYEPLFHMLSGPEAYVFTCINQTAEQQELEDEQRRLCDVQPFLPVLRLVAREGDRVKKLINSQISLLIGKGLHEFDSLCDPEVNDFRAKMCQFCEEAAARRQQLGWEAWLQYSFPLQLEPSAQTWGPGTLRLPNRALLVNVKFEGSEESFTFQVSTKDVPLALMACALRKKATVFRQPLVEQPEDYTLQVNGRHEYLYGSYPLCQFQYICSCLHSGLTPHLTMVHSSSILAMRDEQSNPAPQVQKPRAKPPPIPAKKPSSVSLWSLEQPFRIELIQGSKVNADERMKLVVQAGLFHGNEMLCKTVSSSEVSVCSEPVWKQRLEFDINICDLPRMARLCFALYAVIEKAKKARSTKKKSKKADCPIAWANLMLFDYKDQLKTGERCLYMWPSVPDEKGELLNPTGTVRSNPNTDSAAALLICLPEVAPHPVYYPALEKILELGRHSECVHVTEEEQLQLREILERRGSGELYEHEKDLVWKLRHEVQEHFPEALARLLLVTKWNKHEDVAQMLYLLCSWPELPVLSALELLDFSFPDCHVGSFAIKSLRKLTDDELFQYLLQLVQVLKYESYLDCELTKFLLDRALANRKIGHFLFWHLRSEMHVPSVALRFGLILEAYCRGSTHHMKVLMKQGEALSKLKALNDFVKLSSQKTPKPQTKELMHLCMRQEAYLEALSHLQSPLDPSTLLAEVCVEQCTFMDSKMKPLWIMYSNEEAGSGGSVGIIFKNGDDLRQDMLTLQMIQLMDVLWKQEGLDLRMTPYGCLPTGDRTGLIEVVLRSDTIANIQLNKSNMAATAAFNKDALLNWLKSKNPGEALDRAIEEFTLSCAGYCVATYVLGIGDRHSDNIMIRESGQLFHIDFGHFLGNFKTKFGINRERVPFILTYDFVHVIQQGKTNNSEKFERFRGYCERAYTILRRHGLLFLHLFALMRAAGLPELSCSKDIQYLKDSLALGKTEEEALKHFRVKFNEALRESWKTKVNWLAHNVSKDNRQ
T1 sequence (P27986 2-724 partner): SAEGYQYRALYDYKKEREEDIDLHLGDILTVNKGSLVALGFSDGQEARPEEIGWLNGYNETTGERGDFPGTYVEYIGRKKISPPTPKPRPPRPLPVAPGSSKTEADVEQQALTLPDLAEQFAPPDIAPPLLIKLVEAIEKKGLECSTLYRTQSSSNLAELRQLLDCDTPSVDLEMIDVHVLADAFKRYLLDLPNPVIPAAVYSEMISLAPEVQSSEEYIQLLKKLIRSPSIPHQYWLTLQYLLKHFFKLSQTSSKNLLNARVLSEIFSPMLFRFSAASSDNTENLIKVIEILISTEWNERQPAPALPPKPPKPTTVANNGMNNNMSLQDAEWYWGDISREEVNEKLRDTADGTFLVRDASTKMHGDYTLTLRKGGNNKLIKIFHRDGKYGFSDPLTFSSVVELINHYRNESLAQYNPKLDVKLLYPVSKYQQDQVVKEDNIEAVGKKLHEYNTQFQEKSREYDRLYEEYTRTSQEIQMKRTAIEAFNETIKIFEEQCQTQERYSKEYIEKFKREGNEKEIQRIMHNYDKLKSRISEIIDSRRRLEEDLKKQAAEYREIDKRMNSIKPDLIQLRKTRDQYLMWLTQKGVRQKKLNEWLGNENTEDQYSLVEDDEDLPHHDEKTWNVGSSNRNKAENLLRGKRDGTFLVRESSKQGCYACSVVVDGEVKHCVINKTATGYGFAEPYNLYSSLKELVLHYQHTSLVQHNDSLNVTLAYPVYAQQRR
T2 sequence (P42338 whole entry): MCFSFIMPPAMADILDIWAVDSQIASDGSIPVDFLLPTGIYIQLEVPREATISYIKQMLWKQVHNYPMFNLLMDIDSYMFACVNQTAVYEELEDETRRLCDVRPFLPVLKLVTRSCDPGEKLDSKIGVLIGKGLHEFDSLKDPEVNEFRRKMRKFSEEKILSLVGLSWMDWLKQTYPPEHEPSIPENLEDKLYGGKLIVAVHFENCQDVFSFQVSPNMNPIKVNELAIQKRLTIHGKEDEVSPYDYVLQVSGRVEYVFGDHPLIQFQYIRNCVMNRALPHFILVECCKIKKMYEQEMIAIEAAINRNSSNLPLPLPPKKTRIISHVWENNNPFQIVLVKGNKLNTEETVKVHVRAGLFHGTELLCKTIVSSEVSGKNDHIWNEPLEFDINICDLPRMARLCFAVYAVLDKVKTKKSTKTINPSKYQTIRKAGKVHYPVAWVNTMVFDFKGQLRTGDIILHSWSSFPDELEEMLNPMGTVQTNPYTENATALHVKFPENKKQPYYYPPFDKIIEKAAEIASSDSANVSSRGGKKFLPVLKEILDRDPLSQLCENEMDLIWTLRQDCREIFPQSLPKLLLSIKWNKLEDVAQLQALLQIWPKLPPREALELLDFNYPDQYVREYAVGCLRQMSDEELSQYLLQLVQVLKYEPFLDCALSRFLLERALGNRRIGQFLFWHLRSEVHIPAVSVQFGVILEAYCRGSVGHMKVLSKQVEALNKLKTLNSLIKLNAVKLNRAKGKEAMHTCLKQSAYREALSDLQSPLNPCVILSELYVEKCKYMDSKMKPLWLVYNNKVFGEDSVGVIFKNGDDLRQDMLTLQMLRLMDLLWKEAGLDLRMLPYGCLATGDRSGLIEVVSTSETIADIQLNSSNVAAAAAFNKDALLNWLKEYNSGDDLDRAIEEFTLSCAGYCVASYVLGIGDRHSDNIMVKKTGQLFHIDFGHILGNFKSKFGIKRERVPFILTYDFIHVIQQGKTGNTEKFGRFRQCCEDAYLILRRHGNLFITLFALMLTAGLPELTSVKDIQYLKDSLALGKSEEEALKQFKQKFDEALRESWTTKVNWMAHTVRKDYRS
T2 sequence (P27986 2-724 partner): as the sequence (P27986 2-724 partner) above
T3 sequence (P42336 whole entry): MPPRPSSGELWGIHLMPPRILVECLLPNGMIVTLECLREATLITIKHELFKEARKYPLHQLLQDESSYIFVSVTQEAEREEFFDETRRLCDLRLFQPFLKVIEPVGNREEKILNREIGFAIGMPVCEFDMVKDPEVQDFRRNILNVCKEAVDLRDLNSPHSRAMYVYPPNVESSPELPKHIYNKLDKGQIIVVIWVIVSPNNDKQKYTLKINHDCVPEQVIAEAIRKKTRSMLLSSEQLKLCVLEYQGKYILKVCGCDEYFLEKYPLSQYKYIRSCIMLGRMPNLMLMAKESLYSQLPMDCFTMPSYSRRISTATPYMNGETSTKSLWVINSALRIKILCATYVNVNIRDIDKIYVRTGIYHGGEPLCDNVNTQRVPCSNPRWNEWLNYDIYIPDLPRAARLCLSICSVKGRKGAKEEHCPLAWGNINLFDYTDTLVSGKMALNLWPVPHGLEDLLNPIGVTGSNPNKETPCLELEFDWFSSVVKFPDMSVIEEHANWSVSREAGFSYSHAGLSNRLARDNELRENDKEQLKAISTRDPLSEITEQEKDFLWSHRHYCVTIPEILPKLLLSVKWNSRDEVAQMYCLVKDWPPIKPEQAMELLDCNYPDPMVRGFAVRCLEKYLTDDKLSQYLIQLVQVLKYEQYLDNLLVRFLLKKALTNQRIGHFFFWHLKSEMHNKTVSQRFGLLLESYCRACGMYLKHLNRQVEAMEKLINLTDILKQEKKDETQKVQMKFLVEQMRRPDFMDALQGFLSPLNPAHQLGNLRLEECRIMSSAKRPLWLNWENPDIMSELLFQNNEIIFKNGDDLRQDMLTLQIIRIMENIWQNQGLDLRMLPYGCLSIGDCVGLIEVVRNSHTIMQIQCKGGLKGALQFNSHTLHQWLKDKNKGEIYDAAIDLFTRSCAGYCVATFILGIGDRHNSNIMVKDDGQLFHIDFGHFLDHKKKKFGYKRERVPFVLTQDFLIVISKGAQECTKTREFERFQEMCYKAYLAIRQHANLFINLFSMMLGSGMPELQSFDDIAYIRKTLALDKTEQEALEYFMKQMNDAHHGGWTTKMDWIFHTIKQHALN
T3 sequence (P27986 2-724 partner): as the sequence (P27986 2-724 partner) above

Compound: COc1ncc(-c2ccc(NC(=O)/C=C/c3cccnc3)c(-n3ccnc3)c2)cc1NS(C)(=O)=O [CK-3]
- IC50 (PI3Kδ): 4.67 µM
- IC50 (PI3Kβ): > 10 µM
- IC50 (PI3Kα): 6.71 µM
- IC50 (ERK): 5.67 µM
- IC50 (PI3Kγ): > 10 µM
